Test results as given in ChEMBL document CHEMBL1201862, “PubChem BioAssay data set” (2004).
The source made the active and inactive calls.

What was measured:
[1] = target: Protein Wnt-3a (Mus musculus, UniProt P27467); assay: antagonism of Wnt3a pathway luciferase reporter – Wnt-LIGHT cells, luminescence, selectivity assay for Gli-SUFU antagonist project, dose response (AID 651570); type: functional; details: read-out: IC50_Mean;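 note: Wnt-LIGHT reporter cells stimulated with conditioned medium from Wnt3a-producing cells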
[2] = intracellular Trypanosoma cruzi inhibitors in host cells – cell-based, plate reader, cherry-pick samples, set 3, dose response (AID 651818); type: functional;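 note: compounds incubated with infected cells for about four days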
[3] = mouse fibroblast viability loss – cell-based, cherry-pick samples, set 2, cytotoxicity control for T. cruzi growth inhibitor project, dose response (AID 651817); type: functional; details: NIH3T3
[4] = target: T1, Probable nicotinate-nucleotide adenylyltransferase (Staphylococcus aureus (strain N315), UniProt P65502); type: functional, Staphylococcus aureus subsp. aureus N315;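 for IC50 Mean: confirmatory dose-response retesting of NadD inhibitor hits first found in an ultra-high-throughput screen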
[5] = target: T2, Small ubiquitin-related modifier 2 (Homo sapiens, UniProt P61956); assay: disruption of SUMO2 interaction with SIM peptide – biochemical, fluorescence polarization, uHTS hits, selectivity assay for SUMO1 interaction inhibitor project, dose response (AID 624385); type: functional; details: read-out: IC50_Mean
[6] = target: T3, Polyadenylate-binding protein 1 (Homo sapiens, UniProt P11940); assay: MLLE domain peptide-binding blockers, IC50 – biochemical, fluorescence polarization, FITC-PAM2 peptide, dose response (AID 602259); type: functional; details: read-out: IC50_Mean
[7] = target: T2, Small ubiquitin-related modifier 2; assay: SUMO2 binding disruption by SUMO1 hits – biochemical, FRET, human SUMO2, uHTS hits, selectivity assay for SUMO1 interaction inhibitor project, dose response (AID 624384); type: functional; details: read-out: IC50_Mean
[8] = target: T4, Small ubiquitin-related modifier 1 (Homo sapiens, UniProt P63165); assay: SUMO1 protein interaction blockers, potency – biochemical, fluorescence polarization, uHTS hits, dose response (AID 624382); type: functional; details: read-out: IC50_Mean
[9] = target: T1, Probable nicotinate-nucleotide adenylyltransferase; type: functional, Staphylococcus aureus subsp. aureus N315; details: read-out: IC50_Mean
[10] = target: T3, Polyadenylate-binding protein 1; assay: MLLE binding blockers, Cy5 peptide tracer – biochemical, fluorescence polarization, Cy5-PAM2 peptide, secondary, miRNA deadenylation inhibitor project, dose response (AID 602260); type: functional; details: read-out: IC50_Mean
[11] = target: T4, Small ubiquitin-related modifier 1; assay: SUMO1 protein-protein binding blockers, potency – biochemical, FRET, dose response (AID 624383); type: functional; details: read-out: IC50_Mean
[12] = target: T5, Interleukin-8 (Homo sapiens, UniProt P10145); assay: Dose Response confirmation of uHTS small molecule hits for cystic fibrosis induced NFkb Inhibitors in a PAF-induced IL8 counterscreen.; type: functional; details: read-out: IC50_Mean
[13] = target: Kallikrein-7 (Homo sapiens, UniProt P49862); assay: Fluorescence Intensity-based biochemical primary high throughput dose response assay to identify activators of kallikrein-7 (K7) zymogen.
[14] = test system: HEK293; assay: cells; details: Homo sapiens
[15] = target: T5, Interleukin-8; assay: Dose Response confirmation of uHTS small molecule hits for cystic fibrosis induced NFkb Inhibitors in a TNFa-induced IL8 counterscreen.; type: functional; details: read-out: IC50_Mean
[16] = test system: HEK293; assay: cells; details: Homo sapiens; remark: listed apart in the source
[17] = target: T6, Rac GTPase-activating protein 1 (Homo sapiens, UniProt Q9H0H5); assay: blockers of MgcRacGAP-driven Rac1 GTP hydrolysis – biochemical, ADP Hunter fluorescence, primary and confirmatory, confirmation (AID 624330); type: functional
T6 sequence (Q9H0H5 whole entry): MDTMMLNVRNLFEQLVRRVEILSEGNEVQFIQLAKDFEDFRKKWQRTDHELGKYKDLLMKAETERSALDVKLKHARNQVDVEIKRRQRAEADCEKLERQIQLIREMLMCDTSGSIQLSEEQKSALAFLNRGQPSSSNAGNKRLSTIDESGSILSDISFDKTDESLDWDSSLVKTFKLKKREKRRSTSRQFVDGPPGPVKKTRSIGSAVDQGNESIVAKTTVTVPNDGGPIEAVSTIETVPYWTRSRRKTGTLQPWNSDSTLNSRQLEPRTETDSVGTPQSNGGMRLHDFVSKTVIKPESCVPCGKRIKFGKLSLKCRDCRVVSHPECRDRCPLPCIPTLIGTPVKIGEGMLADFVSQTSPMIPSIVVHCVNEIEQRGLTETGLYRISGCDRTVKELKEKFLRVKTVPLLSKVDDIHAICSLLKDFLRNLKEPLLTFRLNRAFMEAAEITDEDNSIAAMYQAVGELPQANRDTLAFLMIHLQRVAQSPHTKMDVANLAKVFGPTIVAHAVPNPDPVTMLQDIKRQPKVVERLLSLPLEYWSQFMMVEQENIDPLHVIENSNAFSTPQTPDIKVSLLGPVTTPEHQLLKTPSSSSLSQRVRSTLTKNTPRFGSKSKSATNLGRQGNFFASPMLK

[18] = target: T7, DNA repair protein RAD52 homolog (Homo sapiens, UniProt P43351); type: functional, biochemical
T7 sequence (P43351 whole entry): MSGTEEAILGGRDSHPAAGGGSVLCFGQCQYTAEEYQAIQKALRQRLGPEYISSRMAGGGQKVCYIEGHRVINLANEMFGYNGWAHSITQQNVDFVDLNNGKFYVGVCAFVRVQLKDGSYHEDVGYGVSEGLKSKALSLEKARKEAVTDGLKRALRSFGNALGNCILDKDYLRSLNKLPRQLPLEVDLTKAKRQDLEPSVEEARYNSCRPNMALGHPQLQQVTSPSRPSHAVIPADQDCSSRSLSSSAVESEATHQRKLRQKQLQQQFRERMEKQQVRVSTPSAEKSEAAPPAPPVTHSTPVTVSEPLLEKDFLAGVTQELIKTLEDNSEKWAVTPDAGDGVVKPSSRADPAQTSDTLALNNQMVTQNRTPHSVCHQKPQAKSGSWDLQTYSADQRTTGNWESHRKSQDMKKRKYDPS

[19] = target: Arf-GAP with SH3 domain, ANK repeat and PH domain-containing protein 1 (Homo sapiens, UniProt Q9ULH1); type: functional;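 note: biochemical fluorescence polarization dose–response screen measuring inhibition of ASAP1; ASAP1 GAP domain stimulating GTP hydrolysis by truncated human ARF1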
[20] = viability loss in HeLa cells – cytotoxicity control for MgcRacGAP inhibitor project, dose response (AID 624300); type: functional
[21] = Fluorescence-based cell-based high throughput dose response assay for inhibitors of the interaction of nucleotide-binding oligomerization domain containing 2 (NOD2) and the receptor-interacting serine-threonine kinase 2 (RIPK2).; type: functional; details: Homo sapiens
[22] = test system: HEK293; assay: cells; type: functional, cell-based; details: Homo sapiens
[23] = target: Photoreceptor-specific nuclear receptor (Homo sapiens, UniProt Q9Y5X4); type: functional, cell-based;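 note: CHO-S cells with Gal4-NCOR and VP16-NR2E3 two-hybrid luciferase reporter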
[24] = test system: HEK293; assay: inhibition of NOD1-driven NF-kB reporter – cell-based, luminescence, uHTS, primary screen (AID 1578); type: functional; details: Homo sapiens
[25] = test system: HEK293; assay: cells; type: functional, cell-based; details: Homo sapiens; remark: listed apart in the source
[26] = target: T8, Heat shock factor protein 1 (Mus musculus, UniProt P38532); assay: decrease of HSF1-responsive luciferase luminescence – cell-based, NIH3T3, dose retest, confirmation (AID 2382); type: functional;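 note: NIH3T3 fibroblasts with HSF1-driven luciferase reporter stressed by proteasome inhibitor MG132; luminescence from HSF1-driven luciferase expression after 8 hours of MG132 stress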
T8 sequence (P38532 whole entry): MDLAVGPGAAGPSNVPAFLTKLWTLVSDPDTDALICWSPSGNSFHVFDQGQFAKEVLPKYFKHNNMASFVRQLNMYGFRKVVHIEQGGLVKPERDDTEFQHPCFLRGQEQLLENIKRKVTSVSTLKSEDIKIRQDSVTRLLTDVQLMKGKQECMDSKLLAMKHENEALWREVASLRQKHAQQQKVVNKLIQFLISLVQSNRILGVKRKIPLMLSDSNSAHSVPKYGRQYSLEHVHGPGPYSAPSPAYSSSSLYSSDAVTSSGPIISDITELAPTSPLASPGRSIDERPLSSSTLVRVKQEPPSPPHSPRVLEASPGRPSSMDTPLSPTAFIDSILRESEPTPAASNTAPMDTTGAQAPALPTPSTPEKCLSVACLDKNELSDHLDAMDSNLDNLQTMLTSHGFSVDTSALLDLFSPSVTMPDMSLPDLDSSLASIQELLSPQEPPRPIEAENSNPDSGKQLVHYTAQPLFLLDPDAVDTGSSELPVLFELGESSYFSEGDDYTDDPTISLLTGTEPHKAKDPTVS

[27] = target: Nonstructural protein 1 (Influenza A virus, UniProt Q194T2); type: functional, Influenza A virus (A/California/07/2009(H1N1))
[28] = test system: HEK293; assay: NOD2 signaling inhibitors in MDP-stimulated cells, cell-based, uHTS, luminescence (AID 2001); type: functional; details: Homo sapiens

T3 sequence (P11940 whole entry, the tested form may be a part): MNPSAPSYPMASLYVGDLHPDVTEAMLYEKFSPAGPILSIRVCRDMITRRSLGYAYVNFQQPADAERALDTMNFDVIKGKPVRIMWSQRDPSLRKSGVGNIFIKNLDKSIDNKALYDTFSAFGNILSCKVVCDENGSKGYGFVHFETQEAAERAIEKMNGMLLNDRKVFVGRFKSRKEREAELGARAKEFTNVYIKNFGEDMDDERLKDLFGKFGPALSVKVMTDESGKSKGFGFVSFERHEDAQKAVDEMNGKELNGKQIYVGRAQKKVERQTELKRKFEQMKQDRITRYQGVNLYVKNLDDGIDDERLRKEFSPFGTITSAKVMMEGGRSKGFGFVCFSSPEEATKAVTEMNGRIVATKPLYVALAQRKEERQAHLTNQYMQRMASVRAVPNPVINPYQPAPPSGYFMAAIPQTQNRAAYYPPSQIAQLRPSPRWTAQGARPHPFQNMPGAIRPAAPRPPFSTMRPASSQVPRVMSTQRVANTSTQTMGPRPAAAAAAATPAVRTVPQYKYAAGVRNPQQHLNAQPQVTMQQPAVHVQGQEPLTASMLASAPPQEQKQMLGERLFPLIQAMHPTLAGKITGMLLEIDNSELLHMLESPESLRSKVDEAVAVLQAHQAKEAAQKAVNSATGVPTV
T1 sequence (P65502 whole entry): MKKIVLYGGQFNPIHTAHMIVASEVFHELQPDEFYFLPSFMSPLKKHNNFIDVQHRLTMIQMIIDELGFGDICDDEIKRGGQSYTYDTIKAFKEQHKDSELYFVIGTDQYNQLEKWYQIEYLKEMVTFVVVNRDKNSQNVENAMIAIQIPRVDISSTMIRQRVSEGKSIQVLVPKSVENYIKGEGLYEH
T2 sequence (P61956 whole entry, the tested form may be a part): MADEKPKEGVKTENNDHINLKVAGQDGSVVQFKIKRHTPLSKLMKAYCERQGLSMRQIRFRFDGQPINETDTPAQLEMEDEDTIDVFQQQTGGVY
T5 sequence (P10145 whole entry): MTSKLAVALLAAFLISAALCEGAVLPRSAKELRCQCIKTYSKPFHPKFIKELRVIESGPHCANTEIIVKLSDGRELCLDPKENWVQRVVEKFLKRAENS
T4 sequence (P63165 whole entry): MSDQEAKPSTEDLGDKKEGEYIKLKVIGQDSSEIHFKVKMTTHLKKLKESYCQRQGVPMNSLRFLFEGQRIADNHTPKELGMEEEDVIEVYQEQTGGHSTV
Sequence of Nonstructural protein 1 (Q194T2 whole entry): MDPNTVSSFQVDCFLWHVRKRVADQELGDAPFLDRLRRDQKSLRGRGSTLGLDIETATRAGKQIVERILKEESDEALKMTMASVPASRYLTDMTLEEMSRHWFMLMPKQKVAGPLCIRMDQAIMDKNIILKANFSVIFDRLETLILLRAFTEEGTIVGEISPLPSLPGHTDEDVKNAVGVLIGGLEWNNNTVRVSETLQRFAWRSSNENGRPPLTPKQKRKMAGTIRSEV
Sequence of Protein Wnt-3a (P27467 whole entry): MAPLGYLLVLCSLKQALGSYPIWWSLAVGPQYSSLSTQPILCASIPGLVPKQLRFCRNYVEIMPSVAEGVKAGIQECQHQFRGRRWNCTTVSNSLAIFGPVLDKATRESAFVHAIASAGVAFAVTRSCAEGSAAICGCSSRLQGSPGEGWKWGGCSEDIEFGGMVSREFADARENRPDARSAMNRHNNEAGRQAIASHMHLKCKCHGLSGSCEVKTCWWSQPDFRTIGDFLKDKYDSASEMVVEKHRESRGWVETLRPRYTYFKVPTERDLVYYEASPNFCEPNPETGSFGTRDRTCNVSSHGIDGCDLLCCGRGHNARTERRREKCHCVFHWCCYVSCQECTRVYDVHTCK
Sequence of Arf-GAP with SH3 domain, ANK repeat and PH domain-containing protein 1 (Q9ULH1 whole entry, the tested form may be a part): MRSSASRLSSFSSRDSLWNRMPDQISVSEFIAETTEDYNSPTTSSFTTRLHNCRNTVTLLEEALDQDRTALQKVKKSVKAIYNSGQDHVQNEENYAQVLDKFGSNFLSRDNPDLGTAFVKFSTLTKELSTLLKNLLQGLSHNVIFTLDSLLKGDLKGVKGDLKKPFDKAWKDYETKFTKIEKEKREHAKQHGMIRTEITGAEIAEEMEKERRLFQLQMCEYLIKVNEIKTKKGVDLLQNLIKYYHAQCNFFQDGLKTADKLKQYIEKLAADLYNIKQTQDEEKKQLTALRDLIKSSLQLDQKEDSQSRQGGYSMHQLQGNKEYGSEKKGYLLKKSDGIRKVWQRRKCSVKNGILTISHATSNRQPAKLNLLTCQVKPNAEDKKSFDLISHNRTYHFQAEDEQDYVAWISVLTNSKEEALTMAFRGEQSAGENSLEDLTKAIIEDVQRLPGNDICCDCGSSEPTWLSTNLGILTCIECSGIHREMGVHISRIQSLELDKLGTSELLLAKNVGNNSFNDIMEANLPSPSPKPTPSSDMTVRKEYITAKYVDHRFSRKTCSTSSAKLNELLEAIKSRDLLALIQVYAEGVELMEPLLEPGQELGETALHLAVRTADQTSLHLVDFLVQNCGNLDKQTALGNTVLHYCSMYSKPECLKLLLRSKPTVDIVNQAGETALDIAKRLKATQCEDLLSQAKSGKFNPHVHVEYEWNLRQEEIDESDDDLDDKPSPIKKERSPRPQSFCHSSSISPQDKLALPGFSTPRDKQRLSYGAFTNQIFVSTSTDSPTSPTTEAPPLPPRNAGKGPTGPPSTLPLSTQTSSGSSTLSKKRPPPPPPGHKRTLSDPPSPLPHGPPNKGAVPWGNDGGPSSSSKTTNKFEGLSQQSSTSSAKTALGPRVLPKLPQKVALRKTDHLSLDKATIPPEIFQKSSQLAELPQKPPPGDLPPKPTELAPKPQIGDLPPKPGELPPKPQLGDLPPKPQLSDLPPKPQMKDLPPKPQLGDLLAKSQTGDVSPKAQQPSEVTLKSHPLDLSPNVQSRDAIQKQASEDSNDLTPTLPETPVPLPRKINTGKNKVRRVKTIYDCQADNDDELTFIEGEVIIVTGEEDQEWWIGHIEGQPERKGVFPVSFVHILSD
Sequence of Photoreceptor-specific nuclear receptor (Q9Y5X4 whole entry, the tested form may be a part): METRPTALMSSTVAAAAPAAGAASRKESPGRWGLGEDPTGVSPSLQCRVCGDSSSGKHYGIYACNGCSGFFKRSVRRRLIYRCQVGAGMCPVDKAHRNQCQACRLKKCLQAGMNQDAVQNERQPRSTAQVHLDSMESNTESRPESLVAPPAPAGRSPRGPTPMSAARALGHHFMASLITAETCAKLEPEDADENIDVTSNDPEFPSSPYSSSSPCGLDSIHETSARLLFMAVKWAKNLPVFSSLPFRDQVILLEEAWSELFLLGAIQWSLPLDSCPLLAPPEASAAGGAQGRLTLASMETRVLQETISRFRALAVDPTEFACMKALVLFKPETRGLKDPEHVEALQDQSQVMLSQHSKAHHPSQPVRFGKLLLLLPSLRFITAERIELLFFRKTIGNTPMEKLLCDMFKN
Sequence of Kallikrein-7 (P49862 whole entry): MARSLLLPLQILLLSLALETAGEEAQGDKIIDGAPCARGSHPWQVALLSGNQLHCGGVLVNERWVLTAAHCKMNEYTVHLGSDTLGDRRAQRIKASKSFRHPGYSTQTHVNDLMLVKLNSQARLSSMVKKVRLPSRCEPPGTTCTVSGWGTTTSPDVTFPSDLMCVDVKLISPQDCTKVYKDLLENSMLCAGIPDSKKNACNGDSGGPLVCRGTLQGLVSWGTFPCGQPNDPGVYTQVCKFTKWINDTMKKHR

C=CCNC(=S)/N=c1/ccccn1Cc1ccccc1
IC50 [1]: 40.8 µM (inactive)

C[C@H]1CN([C@@H](C)CO)C(=O)c2cccc(NC(=O)c3nc4ccccc4s3)c2O[C@H]1CN(C)S(=O)(=O)c1ccccc1
AC50 [2]: 2.55 µM (active) | AC50 [3]: 39 µM (inactive)

O=C(Nc1ccc2nc(-c3ccco3)c(-c3ccco3)nc2c1)N1CCN(c2ccccn2)CC1
IC50 [4]: 8.98 µM (active) | IC50 [5]: 8.13 µM (active) | IC50 [6]: > 66 µM (inactive) | IC50 [7]: 24.6 µM (inactive) | IC50 [8]: 6.94 µM (active) | IC50 [9]: 19.7 µM (active) | IC50 [10]: > 66 µM (inactive) | IC50 [11]: 51.7 µM (inactive)

O=C(NCCc1ccccc1)c1coc(=O)c(Br)c1
IC50 [12]: 0.987 µM (active) | EC50 [13]: 16.5 µM (inactive) | EC50 [14]: > 59.6 µM (inactive) | IC50 [15]: 0.684 µM (active) | EC50 [16]: > 59.6 µM (inactive)

C[n+]1c(-c2ccc(C=NNC(=O)c3ccc(C(=O)NN=Cc4ccc(-c5cn6ccccc6[n+]5C)cc4)cc3)cc2)cn2ccccc21
IC50 [17]: 66.4 µM (active) | AC50 [18]: 1.52 µM (active) | IC50 [19]: 22.3 µM (inactive) | CC50 [20]: 100 µM (active)

C=CC(=O)N1C/C(=C/c2ccccc2)C(=O)/C(=C\c2ccccc2)C1
IC50 [21]: 3.66 µM (active)

CCOc1ccc(-c2nc(CSCC(=O)N3CCN(c4cccc(OC)c4)CC3)c(C)o2)cc1
IC50 [22]: 8.52 µM (active) | IC50 [23]: 4 µM (active) | EC50 [24]: 5.87 µM (active) | IC50 [25]: 4.42 µM (active) | EC50 [26]: 48 µM (active) | IC50 [27]: > 100 µM (active) | IC50 [28]: 5.09 µM (active)
